How the values were obtained:
Assay type in all cases: biochemical
[1] = target: T1, TACE (Homo sapiens, UniProt P78536); assay: TACE inhibition (fluorescent peptidyl substrate assay)
T1 construct: purchased Immunex
Protocol: Using 96-well black microtiter plates, each well receives a solution composed of 10 µL TACE (Immunex, final concentration 1µg/mL), 70µL Tris buffer, pH 7.4 containing 10% glycerol (final concentration 10 mM), and 10 µL of test compound solution in DMSO (final concentration 1µM, DMSO concentration <1%) and incubated for 10 minutes at room temperature. The reaction is initiated by addition of a fluorescent peptidyl substrate (final concentration 100 µM) to each well and then shaking on a shaker for 5 sec.
The reaction is read (excitation 340 nm, emission 420 nm) for 10 min. and the increase in fluorescence over time is plotted as a linear line. The slope of the line is calculated and represents the reaction rate.
The linearity of the reaction rate is confirmed (r^2 >0.85). The mean (x±sem) of the control rate is calculated and compared for statistical significance (p<0.05) with drug-treated rates using Dunnett's multiple comparison test. Dose-response relationships can be generate using multiple doses of drug and IC50 values with 95% CI are estimated using linear regression.

[2] = target: MMP-9 (Homo sapiens, UniProt P14780); assay: MMP-9 inhibition (thiopeptide or fluorescent peptide substrate assay)
Protocol: (§1) These assays are based on the cleavage of a thiopeptide substrates such as Ac-Pro-Leu-Gly(2-mercapto-4-methyl-pentanoyl)-Leu-Gly-OEt by the matrix metalloproteinases MMP-1, MMP-13 (collagenases) or MMP-9 (gelatinase), which results in the release of a substrate product that reacts colorimetrically with DTNB (5,5'-dithiobis(2-nitro-benzoic acid)). The enzyme activity is measured by the rate of the color increase. The thiopeptide substrate is made up fresh as a 20 mM stock in 100% DMSO and the DTNB is dissolved in 100% DMSO as a 100 mM stock and stored in the dark at room temperature. […] The assay buffer, enzyme, vehicle or inhibitor, and DTNB/substrate are added in this order to a 96 well plate (total reaction volume of 200 µl) and the increase in color is monitored spectrophotometrically for 5 minutes at 405 nm on a plate reader and the increase in color over time is plotted as a linear line.
(§2) Alternatively, a fluorescent peptide substrate is used. […] Upon cleavage of the substrate by an MMP, the fluorescence that is generated is quantitated on the fluorescence plate reader. […] The reaction is read (excitation 340 nm, emission 444 nm) for 10 min, and the increase in fluorescence over time is plotted as a linear line.
(§3) For either the thiopeptide or fluorescent peptide assays, the slope of the line is calculated and represents the reaction rate. […]

[3] = target: T2, MMP-1 (Homo sapiens, UniProt P03956); assay: MMP-1 inhibition (thiopeptide or fluorescent peptide substrate assay)
T2 sequence (P03956 100-469): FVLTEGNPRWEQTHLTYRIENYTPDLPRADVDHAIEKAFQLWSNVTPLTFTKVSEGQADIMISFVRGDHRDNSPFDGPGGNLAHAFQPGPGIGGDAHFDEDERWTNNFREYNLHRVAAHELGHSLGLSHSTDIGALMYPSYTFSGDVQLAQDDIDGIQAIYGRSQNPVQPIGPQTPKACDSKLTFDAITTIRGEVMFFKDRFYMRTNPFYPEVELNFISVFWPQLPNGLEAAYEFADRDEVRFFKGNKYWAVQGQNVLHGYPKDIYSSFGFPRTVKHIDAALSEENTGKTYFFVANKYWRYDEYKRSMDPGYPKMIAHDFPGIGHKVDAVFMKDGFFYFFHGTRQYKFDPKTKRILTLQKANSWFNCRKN
Protocol: as §1, §2, §3

MMP-9, sequence (P14780 94-707): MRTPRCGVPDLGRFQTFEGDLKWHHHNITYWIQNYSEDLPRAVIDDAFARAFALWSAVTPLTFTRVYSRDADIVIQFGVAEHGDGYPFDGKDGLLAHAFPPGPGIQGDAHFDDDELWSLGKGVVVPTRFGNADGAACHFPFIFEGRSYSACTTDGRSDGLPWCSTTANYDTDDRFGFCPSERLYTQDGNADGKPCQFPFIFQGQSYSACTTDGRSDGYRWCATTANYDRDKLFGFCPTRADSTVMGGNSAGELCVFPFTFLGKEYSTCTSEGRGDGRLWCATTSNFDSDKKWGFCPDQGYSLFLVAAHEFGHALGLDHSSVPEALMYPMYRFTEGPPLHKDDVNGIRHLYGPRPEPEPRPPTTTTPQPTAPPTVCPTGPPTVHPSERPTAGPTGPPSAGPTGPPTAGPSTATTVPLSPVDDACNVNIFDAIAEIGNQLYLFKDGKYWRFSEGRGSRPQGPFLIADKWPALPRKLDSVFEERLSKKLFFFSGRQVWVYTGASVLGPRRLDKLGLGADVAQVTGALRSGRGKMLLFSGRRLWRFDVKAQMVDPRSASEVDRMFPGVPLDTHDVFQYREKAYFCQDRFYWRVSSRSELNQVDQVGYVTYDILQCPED
T1 sequence (P78536 215-824): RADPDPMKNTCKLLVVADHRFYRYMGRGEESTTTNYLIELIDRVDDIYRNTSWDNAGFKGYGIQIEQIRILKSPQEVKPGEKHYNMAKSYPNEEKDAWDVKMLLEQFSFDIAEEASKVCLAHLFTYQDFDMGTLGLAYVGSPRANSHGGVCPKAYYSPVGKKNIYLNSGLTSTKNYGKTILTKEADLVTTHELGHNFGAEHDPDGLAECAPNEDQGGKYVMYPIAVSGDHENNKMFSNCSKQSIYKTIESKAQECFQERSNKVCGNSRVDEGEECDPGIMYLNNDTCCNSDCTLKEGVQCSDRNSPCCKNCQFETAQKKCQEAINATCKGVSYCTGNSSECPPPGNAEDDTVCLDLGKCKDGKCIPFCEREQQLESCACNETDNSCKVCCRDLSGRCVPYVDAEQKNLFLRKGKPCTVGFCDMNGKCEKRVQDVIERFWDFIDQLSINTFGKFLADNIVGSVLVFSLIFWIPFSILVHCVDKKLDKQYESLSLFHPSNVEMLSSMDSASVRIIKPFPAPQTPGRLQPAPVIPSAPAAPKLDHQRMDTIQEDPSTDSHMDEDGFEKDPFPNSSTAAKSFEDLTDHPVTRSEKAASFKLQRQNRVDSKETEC

inhibition at 1 µM ([1]; read-out: TACE % inhibition at 1 µM concentration) | IC50 [2] | IC50 [3] | IC50 [1] | Compound
24% | 275 nM | 616 nM | – | COc1ccc(S(=O)(=O)N(Cc2ccccc2)[C@H]2CCCC[C@H]2C(=O)NO)cc1 (relative stereo) [Example 10, (cis)-2-[Benzyl-(4-methoxy-benzenesulfonyl)-amino]-cyclohexanecarboxylic acid hydroxyamide]
– | 181 nM | 176 nM | 1610 nM | COc1ccc(S(=O)(=O)N(Cc2ccccc2)[C@@H]2CCCC[C@H]2C(=O)NO)cc1 (relative stereo) [Example 9, (trans)-2-[Benzyl-(4-methoxy-benzenesulfonyl)-amino]-cyclohexanecarboxylic acid hydroxyamide]

From EP0934259B1, “BETA-SULFONAMIDO HYDROXAMIC ACIDS AS MATRIX METALLOPROTEINASE AND TACE INHIBITORS” (American Cyanamid Company, priority 1996, dated 1998)
